In publication PMC12845261, “Design, Synthesis, and Biological Evaluation of N-Acyl-Hydrazone-Linked Quinazolinone Derivatives with Antioxidant, Antimicrobial, and Anticancer Potential” (Pharmaceuticals, 2025):
Converted amounts (≈) assume the structure as drawn.

Assays:
E. faecalis ATCC 29212 [1] = assay: Qualitative antimicrobial activity, adapted Kirby-Bauer (inhibition zone); format: cell-based; conditions: reference drug at 100 μg/mL
Experimental: (§1) For the evaluation of antimicrobial activity, the following reference strains were used: S. aureus ATCC 25923, E. faecalis ATCC 29212, E. coli ATCC 25922, P. aeruginosa ATCC 27853 and C. albicans ATCC 10231. The microbial suspensions were prepared at a density of 1.5 × 10^8 CFU/mL, corresponding to the McFarland 0.5 nephelometric standard. These suspensions were obtained from 18–24 h cultures developed on solid media (Mueller-Hinton for bacteria, Sabouraud for yeast). Antimicrobial activity was assessed using an adapted Kirby-Bauer method according to CLSI (Clinical and Laboratory Standards Institute). In addition to the 10 mg/mL stock solutions prepared in DMSO for each compound, a solvent control was used. Each stock solution (10 μL) was distributed in spot on the medium inoculated with the interest strain. After measuring the diameter of the inhibition zone (IZD) around the spot (mm), the results were expressed as the mean ± standard deviation (SD) for each compound tested in duplicate.

E. coli ATCC 25922 [2] = assay: as above; format: cell-based; conditions: reference drug at 100 μg/mL
Experimental: as §1

S. aureus ATCC 25923 [3] = assay: as above; format: cell-based; conditions: reference drug at 100 μg/mL
Experimental: as §1

P. aeruginosa ATCC 27853 [4] = assay: as above; format: cell-based; conditions: reference drug at 100 μg/mL
Experimental: as §1

E. faecalis ATCC 29212 [5] = assay: Quantitative antimicrobial activity, serial binary microdilution (MIC, IC50); format: cell-based; conditions: Enterococcus faecalis, ATCC29212, reference drug
Experimental: (§2) For the evaluation of antimicrobial activity, the following reference strains were used: S. aureus ATCC 25923, E. faecalis ATCC 29212, E. coli ATCC 25922, P. aeruginosa ATCC 27853 and C. albicans ATCC 10231.
(§3) Quantitative analysis was performed using the method of serial binary microdilutions in liquid medium (Tryptone Soy Broth for bacteria and Sabouraud Broth for yeasts) in plates with 96 wells. Stock solutions of 10 mg/mL were made in DMSO, and the range of concentrations tested for each compound was 5000–0.16 μg/mL. Simultaneously, the DMSO control was carried out under the same working conditions. Each well was inoculated with 10 μL of microbial suspension, adjusted to a density of 1.5 × 10^8 CFU/mL prepared from 18 to 24 h cultures. After 24 h of incubation at 37 °C, microbial growth and multiplication were evaluated both macroscopically and spectrophotometrically at 620 nm to establish the MIC values. […] Blanks were made for each sample concentration, and the formula was applied: Microbial viability(%)=Asample−Ablank/Astrain control−Asterility control·100

E. coli ATCC 25922 [6] = assay: as above; format: cell-based; conditions: Escherichia coli, ATCC25922; E. coli ATCC 25922; reference drug
Experimental: as §2, §3

S. aureus ATCC 25923 [7] = assay: as above; format: cell-based; conditions: Staphylococcus aureus, ATCC25923; S. aureus ATCC 25923; reference drug
Experimental: as §2, §3

P. aeruginosa ATCC 27853 [8] = assay: as above; format: cell-based; conditions: Pseudomonas aeruginosa, ATCC27853, reference drug
Experimental: as §2, §3

E. faecalis ATCC 29212 [9] = assay: Microbial adhesion, crystal violet (MICMA); format: cell-based; conditions: reference drug
Experimental: as §2
(§4) Following quantitative analysis of antimicrobial activity, microbial adhesion was evaluated after methanol fixation and violet crystal staining (0.1%). The absorbance of the adhered biomass colored with violet crystal and resuspended in 33% acetic acid was measured at 490 nm.

E. coli ATCC 25922 [10] = assay: Microbial adhesion, crystal violet (MICMA); format: cell-based; conditions: reference drug
Experimental: as §2, §4

S. aureus ATCC 25923 [11] = assay: Microbial adhesion, crystal violet (MICMA); format: cell-based; conditions: reference drug
Experimental: as §2, §4

P. aeruginosa ATCC 27853 [12] = assay: Microbial adhesion, crystal violet (MICMA); format: cell-based; conditions: reference drug
Experimental: as §2, §4

E. faecalis ATCC 29212 [13] = assay: Microbicidal activity (MMC); format: cell-based; conditions: reference drug
Experimental: (§5) For the evaluation of antimicrobial activity, the following reference strains were used: S. aureus ATCC 25923, E. faecalis ATCC 29212, E. coli ATCC 25922, P. aeruginosa ATCC 27853 and C. albicans ATCC 10231. To determine the MMCs, 5 μL of culture was taken from each well and distributed on solid medium. The plates were incubated for 20–24 h at 37 °C. The lowest concentration at which no microbial growth was observed was considered MMC.

E. coli ATCC 25922 [14] = assay: Microbicidal activity (MMC); format: cell-based; conditions: reference drug
Experimental: as §5

S. aureus ATCC 25923 [15] = assay: Microbicidal activity (MMC); format: cell-based; conditions: reference drug
Experimental: as §5

P. aeruginosa ATCC 27853 [16] = assay: Microbicidal activity (MMC); format: cell-based; conditions: reference drug
Experimental: as §5

[17] = system: VERO (non-tumoral African green monkey kidney epithelial cells); assay: Cytotoxicity, MTT assay; format: cell-based; conditions: 24 h
Experimental: (§6) For the cytotoxicity screening of the N-acyl-hydrazone derivatives, three cell lines were employed: HT-29 (human colorectal adenocarcinoma), A431 (human epidermoid carcinoma), and VERO (non-tumoral African green monkey kidney epithelial cells). All cell lines were obtained from the American Type Culture Collection (ATCC, Manassas, VA, USA), and maintained in appropriate culture media as follows: HT-29 and A431 cells were cultured in Dulbecco’s Modified Eagle Medium (DMEM), while VERO cells were cultured in Minimum Essential Medium (MEM). Both culture media were supplemented with 10% fetal bovine serum (FBS) and 1% penicillin-streptomycin mix, to formulate the complete culture medium. All cell lines were incubated at 37 °C in a humidified atmosphere containing 5% CO2. […] For the cytotoxicity screening, cells were seeded into sterile 96-well plates at an initial density of 1 × 10^4 cells/well and allowed to adhere for 24 h. Subsequently, cells were treated with increasing concentrations (3.125 to 50 µM) of compounds 1a–1f and 2 for 24 h. In parallel, 5-fluorouracil (5-FU, Sigma Aldrich, St. Louis, MO, USA) was included as a reference drug and tested over the same concentration range under identical experimental conditions. […] For the experimental control, culture medium was refreshed at the time of treatment application. […] Louis, MO, USA). Briefly, the culture media were discarded from each well and replaced with a fresh solution of MTT (1 mg/mL). Plates were incubated for 4 h at 37 °C, and the resulting formazan crystals were solubilized with isopropanol. The absorbance was measured at 550 nm using the FlexStation III multimodal reader (Molecular Devices, San Jose, CA, USA). All experiments were performed in triplicate and repeated in three independent assays. Cell viability was calculated as a percentage relative to the untreated control using the formula Cell Viability (%) = (Abs treated/Abs control) × 100. Data were processed using GraphPad Prism 6.0 and presented as mean ± standard deviation (SD). Statistical analysis was performed using one-way analysis of variance (ANOVA) followed by Dunnett’s post hoc test for comparison with the untreated control group.

[18] = system: HT-29 (human colorectal adenocarcinoma); assay: Cytotoxicity, MTT assay; format: cell-based; conditions: 24 h, tested range 3.125 to 50 µM
Experimental: as §6

C. albicans ATCC 10231 [19] = assay: Qualitative antimicrobial activity, adapted Kirby-Bauer (inhibition zone); format: cell-based; conditions: reference drug at 140 μg/mL
Experimental: as §1

C. albicans ATCC 10231 [20] = assay: Quantitative antimicrobial activity, serial binary microdilution (MIC, IC50); format: cell-based; conditions: Candida albicans, ATCC10231, reference drug
Experimental: as §2, §3

C. albicans ATCC 10231 [21] = assay: Microbial adhesion, crystal violet (MICMA); format: cell-based; conditions: reference drug
Experimental: as §2, §4

C. albicans ATCC 10231 [22] = assay: Microbicidal activity (MMC); format: cell-based; conditions: reference drug
Experimental: as §5

[23] = Total antioxidant capacity (TAC), DPPH method; conditions: 30 min, 517 nm, compound stock 1 mg/mL in methanol, reference ascorbic acid TAC = 100%
Experimental: The total antioxidant capacity (TAC) was evaluated using diphenyl-1-picrylhydrazyl free radical (DPPH) method. The TAC value was determined in relation to the antioxidant capacity of the reference (ascorbic acid, TAC = 100%). […] The maximum value was recorded for 1c (~45%), followed by 1f and 1a (~43%), while the minimum for 1e (~19%).
In this study, the TAC values were obtained using the most-known DPPH method, in which the intense violet colour of the free radical solution is decreasing. Stock solutions of compounds 1a–1f and 2 were prepared in absolute methanol at a concentration of 1 mg/mL. A stock solution of 2,2-diphenyl-1-picrylhydrazyl free radical was obtained in the same solvent, at a concentration of 2 × 10^−4 M. To 1.8 mL of DPPH solution was added 0.2 mL of each solution of the compounds 1a–1f and 2 and the mixture was left in the dark for 30 min, followed by measurements of the absorbance at 517 nm. The following equation was used to calculate TAC: TAC%=Abs0 min−Abs30 min/Abs0min·100 where Abs0 min refers to the initial absorbance of the DPPH free radical solution, and Abs 30 min refers to the absorbance of the solution of DPPH and the added compound after 30 min. Ascorbic acid was used as a reference.

## O=C(O)c1cn(C2CC2)c2cc(N3CCNCC3)c(F)cc2c1=O [Ciprofloxacin, ciprofloxacin, reference compound]
E. faecalis ATCC 29212 [1]
  IZD (100 μg/mL, mm): 8.33 ± 0.58 mm
E. coli ATCC 25922 [2]
  IZD (100 μg/mL, mm): 34.00 ± 2.00 mm
S. aureus ATCC 25923 [3]
  IZD (100 μg/mL, mm): 17.33 ± 0.58 mm
P. aeruginosa ATCC 27853 [4]
  IZD (100 μg/mL, mm): 15.33 ± 0.58 mm
E. faecalis ATCC 29212 [5]
  MIC: 0.78 µg/mL (≈ 2.35 µM)
E. coli ATCC 25922 [6]
  MIC: 0.2 µg/mL (≈ 0.604 µM)
S. aureus ATCC 25923 [7]
  MIC: 0.78 µg/mL (≈ 2.35 µM)
P. aeruginosa ATCC 27853 [8]
  MIC: 0.39 µg/mL (≈ 1.18 µM)
E. faecalis ATCC 29212 [9]
  MICMA: 0.78 µg/mL
E. coli ATCC 25922 [10]
  MICMA: <0.10 µg/mL
S. aureus ATCC 25923 [11]
  MICMA: 0.39 µg/mL
P. aeruginosa ATCC 27853 [12]
  MICMA: 0.39 µg/mL
E. faecalis ATCC 29212 [13]
  MMC: 6.25 µg/mL
E. coli ATCC 25922 [14]
  MMC: 0.78 µg/mL
S. aureus ATCC 25923 [15]
  MMC: 1.56 µg/mL
P. aeruginosa ATCC 27853 [16]
  MMC: 0.39 µg/mL

## O=c1[nH]cc(F)c(=O)[nH]1 [Compound 5-FU, 5-fluorouracil, reference compound]
[17]; 50 µM
  Maximum reduction in viability: approximately 25%
[17]; tested range 3.125 to 50 µM
  IC50: not reached within the tested range
[18]
  IC50: not reached within the tested concentration range

## CC(=O)N1CCN(c2ccc(OCC3COC(Cn4ccnc4)(c4ccc(Cl)cc4Cl)O3)cc2)CC1 (stereo not drawn) [Ketoconazole, ketoconazole, reference compound]
C. albicans ATCC 10231 [19]
  IZD (140 μg/mL, mm): 6.5 ± 0.71 mm
C. albicans ATCC 10231 [20]
  MIC: 8.75 µg/mL (≈ 16.5 µM)
C. albicans ATCC 10231 [21]
  MICMA: 0.27 µg/mL
C. albicans ATCC 10231 [22]
  MMC: 35 µg/mL

## O=C1O[C@H]([C@@H](O)CO)C(O)=C1O [ascorbic acid, reference compound]
[23]
  TAC (%): 100%
